Test results taken from US7230074B2, “Inhibitors of dipeptidyl-aminopeptidase type IV” (Trustees of Tufts College, priority 1991, dated 2007).

How the values were obtained:
[1] = biological target: T1, DP-IV isolated from porcine kidneys (Sus scrofa, UniProt P22411); experiment: DP-IV inhibition, hydrolysis of Ala-Pro-p-nitroanilide; format: biochemical, pig; conditions: for Inhibition of / affinity for DP-IV (in words): N terminus blocked
T1 construct: DP-IV is purified from pig kidney cortex by the method of Barth et al; from tissue; host or cells: pig kidney cortex
T1 sequence (P22411 whole entry): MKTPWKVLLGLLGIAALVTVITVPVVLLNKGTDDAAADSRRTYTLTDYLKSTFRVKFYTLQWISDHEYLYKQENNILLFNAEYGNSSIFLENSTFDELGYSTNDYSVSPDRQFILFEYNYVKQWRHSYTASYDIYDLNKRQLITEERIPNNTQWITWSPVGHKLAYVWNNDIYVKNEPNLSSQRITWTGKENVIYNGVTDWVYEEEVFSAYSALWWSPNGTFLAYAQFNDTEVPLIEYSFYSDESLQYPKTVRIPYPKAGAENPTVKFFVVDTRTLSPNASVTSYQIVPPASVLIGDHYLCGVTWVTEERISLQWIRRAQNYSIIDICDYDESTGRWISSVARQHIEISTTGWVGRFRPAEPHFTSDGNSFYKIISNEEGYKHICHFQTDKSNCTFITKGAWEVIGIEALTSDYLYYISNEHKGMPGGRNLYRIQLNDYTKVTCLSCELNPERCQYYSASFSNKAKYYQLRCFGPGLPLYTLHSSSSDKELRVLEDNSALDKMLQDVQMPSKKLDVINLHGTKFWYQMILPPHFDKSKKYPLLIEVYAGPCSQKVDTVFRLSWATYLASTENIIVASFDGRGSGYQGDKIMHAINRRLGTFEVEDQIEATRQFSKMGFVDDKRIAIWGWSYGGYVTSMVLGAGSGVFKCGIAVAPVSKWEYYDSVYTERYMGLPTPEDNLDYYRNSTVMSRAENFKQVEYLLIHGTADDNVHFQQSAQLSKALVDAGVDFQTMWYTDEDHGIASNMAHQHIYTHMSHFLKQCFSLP
Protocol: Briefly, a reaction containing 50 μmol sodium Hepes (pH 7.8), 10 μmol Ala-Pro-p-nitroanilide, 6 milliunits of DP-IV, and 2% (vol/vol) dimethylformamide in a total volume of 1.0 ml. The reaction was initiated by the addition of enzyme and reaction rates were measured at 25° C.
Th rates of DP-IV-catalyzed hydrolysis of Ala-Pro-p-nitroanilide were determined at 3 to 5 different concentration of Ala-boroPro Pro-boroPro, boroPro and N-Boc-Ala-boroPro.

HIV-1-IIIB in A3.5 cells = experiment: HIV-1 replication in A3.5 cells (p24 antigen ELISA); format: cell-based
From the text: […]. The rational for these experiments comes from the reported connection between T-cell activation, IL-2 production, and HIV replication and expression of HIV proteins.
Cell lines used in the present studies include A3.5 cells (a monocyte cell line which is CD4+, HLA−DR+, and CD3—) and peripheral blood mononuclear cells (PBMC). The A3.5 cells grow continuously in culture without exogenous growth factors. PBMC cells require IL-2 for propagation in vitro. Cells were infected with HIV-1-IIIB at a multiplicity of infection (moi) of 5×10^−4 tissue culture infectious dose 50 (TCID50)/cell for both the A3.5 cells and the PMBC cells. Dilutions of inhibitor were made in RPMI-1640 and subsequently passed through a 0.22 um filter. At the start of each experiment, 1×10^6 cells/well, in 24-well plates, were infected with HIV-1-IIIB at the moi indicated above. Inhibitor was added simultaneously at the appropriate dilutions. All cultures were maintained at 5% CO2 and 37° C. in RPMI-1640 supplemented with penicillin, streptomycin, L-glutamine, hepes buffer, and 20% heat-inactivated fetal calf serum. Cell counts and viability were determined by trypan blue exclusion. Culture supernatants were harvested and assayed for HIV-1 p24 antigen by ELISA (NEN-DuPont, Boston, Mass.). Fresh media and inhibitor were added on each day. […]

[2] = Decomposition in aqueous solution; format: physicochemical; conditions: neutral pH, room temperature (20–25° C.)
From the text: . Many dipeptide derivatives with a free N terminal amino group and a functional group (such as a difluoromethyl ketone) on the C-terminus are similarly unstable due to intramolecular reaction. A six member ring is formed between the amino and C-terminal functional groups and undergoes subsequent further reaction, such as hydrolysis.

[3] = biological target: T2, DP-IV from human placenta (Homo sapiens, UniProt P27487); experiment: DP-IV inhibition, enzyme from human placenta; format: biochemical
T2 construct: and from human placenta by the method of Puschel et al; from tissue; host or cells: human placenta
T2 sequence (P27487 whole entry): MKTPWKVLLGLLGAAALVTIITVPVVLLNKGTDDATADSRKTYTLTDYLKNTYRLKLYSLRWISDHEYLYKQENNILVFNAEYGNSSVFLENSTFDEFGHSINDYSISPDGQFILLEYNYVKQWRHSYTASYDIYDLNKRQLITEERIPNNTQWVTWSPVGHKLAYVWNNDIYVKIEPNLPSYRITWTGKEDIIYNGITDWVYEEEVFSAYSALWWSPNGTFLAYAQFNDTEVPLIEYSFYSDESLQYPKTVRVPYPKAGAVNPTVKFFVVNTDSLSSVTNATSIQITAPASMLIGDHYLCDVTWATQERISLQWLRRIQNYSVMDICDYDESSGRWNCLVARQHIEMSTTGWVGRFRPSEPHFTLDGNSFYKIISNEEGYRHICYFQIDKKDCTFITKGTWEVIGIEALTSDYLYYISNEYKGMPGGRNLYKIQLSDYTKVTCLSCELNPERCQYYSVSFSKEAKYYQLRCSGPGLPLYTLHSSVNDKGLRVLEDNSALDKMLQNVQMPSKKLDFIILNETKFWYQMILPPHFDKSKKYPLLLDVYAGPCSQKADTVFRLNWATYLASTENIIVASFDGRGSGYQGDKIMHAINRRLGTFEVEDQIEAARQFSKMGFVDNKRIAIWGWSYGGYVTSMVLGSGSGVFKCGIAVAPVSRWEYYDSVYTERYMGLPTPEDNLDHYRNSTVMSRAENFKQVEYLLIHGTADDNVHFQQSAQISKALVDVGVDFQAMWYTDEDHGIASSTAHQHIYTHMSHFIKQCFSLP

CC(NC(=O)OC(C)(C)C)C(=O)N1CCCC1B(O)O (stereo not drawn) [N-Boc-Al-boroPro, N-Boc-Ala-boroPro]
Ki [1]: > 1000 µM
Inhibition of / affinity for DP-IV (in words) [1]: abolished inhibition
Inhibition of / affinity for DP-IV (in words) ([1]; listed as Boc-blocked Ala-boroPr): no affinity

C[C@H](N)C(=O)N1CCCC1B(O)O (mixture of isomers) [Ala-boroPro, H-Ala-boroPro]
Suppression of HIV (p24 antigen) (HIV-1-IIIB in A3.5 cells; A3.5 cells infected with HIV-1-IIIB): suppresses HIV below detectable levels
half-life [2]: ~0.5 h

Cc1cn([C@H]2C[C@H](N=[N+]=[N-])[C@@H](CO)O2)c(=O)[nH]c1=O [AZT, zidovudine, reference compound]
Anti-HIV effect (p24 antigen) (HIV-1-IIIB in A3.5 cells; 1 μM, A3.5 cells): anti-HIV effect

OB(O)C1CCCN1 (stereo not shown) [BoroPro, boroProline]
Ki [1]: 110 µM
Decrease in affinity on going from Ala-boroPro or Pro-boroPro ([1]; relative to Ala-boroPro or Pro-boroPro, Table 1): 10^5–10^6

O=C([C@@H]1CCCN1)N1CCCC1B(O)O (mixture of isomers) [Pro-boroPro, H-Pro-boroPro]
Inhibition of DP-IV from human placenta compared with pig kidney enzyme [3]: equally well
Ki [1]: 0.003 µM
Ki for DP-IV (in words) ([1]; pig kidney DP-IV): nanomolar range
Affinity for DP-IV, fold less than that of H-Ala-boroPro ([1]; relative to H-Ala-boroPro): about 10 fold
half-life [2]: ~1.5 h
